The text below walks through data of patent US5385921A, “Pharmaceutical formulations” (Aktiebolaget Astra, priority 1990, dated 1995).

In one assay the test system is locomotor activity. The experiment in a line: Sedation studies: suppression of locomotor activity in mice. In kind it is in vivo, male TO mice. Conditions: Mus musculus, recording starts 20 min after administration, 30 min period, weights refer to the free base, read-out: Sedation ED50 (dose required to reduce locomotor activity by 50%). As for the experimental part: (§1) Animals used were male Wistar rats (140-170 g) and male TO mice (18-30 g).
(§2) All drugs were dissolved in isotonic saline. Weights refer to the free base.
The test drug was administered to mice and starting 20 min later locomotor activity was recorded for a 30 min period. Activity was monitored using an infra-red light beam interruption system in cages measuring 40 cm×40 cm. Data are expressed as the dose required to reduce locomotor activity by 50% (ED50).

The subject of assay [1] is Pentylenetetrazol (PTZ) seizures. The experiment in a line: Pentylenetetrazol (PTZ) seizures: seizure threshold in rats. It counts as in vivo, male Wistar rats. Conditions: Rattus norvegicus, 0.25 h, drug 15 min before PTZ infusion into tail vein, weights refer to the free base, read-out: PTZ seizures TI50 (dose required to increase seizure threshold by 50%). On the procedure: as §1, §2
Seizure threshold was assessed in rats by measurement of the dose of PTZ required to elicit a seizure when infused through a tail vein. PTZ (10 mg/ml) was infused into the tail vein at a rate of […] and the time to the first clonic convulsion measured. Seizure threshold was calculated as described by Green & Murray, J. Pharm. Pharmacol. 1989, 41: 879-880. Drugs were administered 15 min before the PTZ. Data are expressed as the dose required to increase seizure threshold by 50% (TI50).

The subject of assay [2] is N-methyl-D-aspartate (NMDA) seizures. The experiment in a line: N-methyl-D-aspartate (NMDA) seizures: tonic convulsions in mice. Conditions: Mus musculus, drug 15 min before NMDA 300 mg/kg i.p., weights refer to the free base, read-out: NMDA seizures ED50 (dose required to decrease the incidence of tonic convulsions by 50%). It counts as in vivo, male TO mice. As for the experimental part:
as §1, §2
Drugs were adminstered 15 min before the NMDA, and data are expressed as the dose required to decrease the incidence of tonic convulsions by 50% (ED50).

Assay [3] deals with CA1/CA2 hippocampal neurones. The experiment in a line: Neuroprotection studies: damage to CA1/CA2 hippocampal neurones in gerbils after carotid artery occlusion. In kind it is in vivo, gerbil. As for the experimental part:
as §2
Ischaemia was induced in gerbils, by occlusion of the carotid arteries following the accepted general procedure as described in, for example, EP 230 370 and R. Gill, A. C. Foster and G. N. Woodruff, J. Neuroscience, 1987, 7, 3343-3349.
Ischaemia was induced in the animals by 5 minute occlusion of both carotid arteries. Body temperature was maintained at 37° C. throughout. Restoration of blood flow after occlusion was checked visually and the animals were allowed to survive for 4 days. The extent of neuronal degeneration in the hippocampus was then assessed. The test compounds were adminstered (i.p.) as a single dose 60 minutes following occlusion. No administration was made prior to the occlusion.

Structures are written as SMILES.

Consider `Cc1ncsc1C(O)CCl` (centres unmarked) [5-(2-Chloro-1-hydroxyethyl)-4-methylthiazole ethandisulphonate], for which the ED50 with locomotor activity was 52 mg/kg; in assay [1], 34 mg/kg; in assay [2] it was 40 mg/kg.

With `Cc1ncsc1C(O)CCl.Cl` (centres unmarked) [5-(2-chloro-1-hydroxyethyl)-4-methylthiazole hydrochloride salt], in assay [3] (100 mg/kg i.p. single dose 60 minutes after induction of ischaemia, n=8, assessed after 4 days, untreated (None) 92 ±7), the “% Damage to CA1/CA2 Hippocampal Neurones” value is given as 64 ±8%. For the same molecule, in assay [3] (i.p., single dose 60 minutes following occlusion), the “reduction of damage to the CA1/CA2 hippocampal neurones (in words)” value is “effective in reducing the damage to the CA1/CA2 hippocampal neurones”.
